Source: patent US8163795B2, “Chroman derivatives, medicaments and use in therapy” (Marshall Edwards, Inc., priority 2004, dated 2012)
Read-outs that look alike come from different tables or passages of the source.

Experiments:
[1] = tested on: Neonatal foreskin fibroblasts (NFF); experiment: Proliferation assay (MTT), normal cell toxicity; assay type: cell-based, Human; conditions: read-out: IC50
Protocol: (§1) The normal cell line NFF (neonatal foreskin fibroblasts) was a sift from Dr. Peter Parsons (Queensland Institute of Medical Research). RK (rabbit kidney) cells were obtained from Miller Whalley (Macquarie University). Both cell lines were cultured in RPMI supplemented with 10% FCS(CSL, Australia), penicillin (100 U/ml), streptomycin ([…]), L-glutamine (2 mM) and sodium bicarbonate (1.2 g/L), and cultured at 37° C. in a humidified atmosphere of 5% CO2.
(§2) IC50 values were determined for each cell line. Cells were seeded in 96-well plates at an appropriate cell density as determined from growth kinetics analysis and cultured for 5 days in the absence and presence of the test compounds. Cell proliferation was assessed after the addition of 20 μl of 3-4,5 dimethylthiazol-2,5-diphenyl tetrazolium bromide (MTT, 2.5 mg/ml in PBS, Sigma) for 3-4 hrs at 37° C. according to manufacturer's instructions. IC50 values were calculated from semi-log plots of % of control proliferation on the y-axis against log dose on the x-axis.

[2] = tested on: CP70 ovarian cancer cell line; experiment: Proliferation assay (MTT); assay type: cell-based
[3] = tested on: SKOV-3 ovarian cancer cell line; experiment: Proliferation assay (MTT); assay type: cell-based
[4] = tested on: A2780 (Ovarian); experiment: Proliferation assay (MTT); assay type: cell-based; conditions: Table 2.1
Protocol: (§3) All cultures were supplemented with 10% FCS (fetal calf serum CSL, Australia), penicillin (100 U/ml), streptomycin ([…]), L-glutamine (2 mM) and sodium bicarbonate (1.2 g/L), and cultured at 37° C. in a humidified atmosphere of 5% CO2. All cell lines were purchased from ATCC (Maryland, USA) except where noted.
as §2

[5] = tested on: DU145 (Prostate); experiment: Proliferation assay (MTT); assay type: cell-based
Protocol: as §3, §2

[6] = tested on: HCT-15 (Colorectal); experiment: Proliferation assay (MTT); assay type: cell-based; conditions: Table 2.1, Colorectal HCT-15
Protocol: as §3, §2

[7] = tested on: HT-29 (Colorectal); experiment: Proliferation assay (MTT); assay type: cell-based; conditions: Table 2.1, Colorectal HT-29
Protocol: as §3, §2

[8] = tested on: HTB-138 (Glioma); experiment: Proliferation assay (MTT); assay type: cell-based; conditions: Table 2.1; Glioma HTB-138
Protocol: as §3, §2

[9] = tested on: LNCaP (Prostate); experiment: Proliferation assay (MTT); assay type: cell-based; conditions: Table 2.1
Protocol: as §3, §2

[10] = tested on: MCF-7 breast cancer cell line; experiment: Proliferation assay (MTT); assay type: cell-based; conditions: Table 2.1, Breast MCF-7
Protocol: as §3, §2

[11] = tested on: NCI-H460 (Lung); experiment: Proliferation assay (MTT); assay type: cell-based; conditions: Table 2.1, Lung NCI-H460
Protocol: as §3, §2

[12] = tested on: PC3 prostate cancer cell line; experiment: Proliferation assay (MTT); assay type: cell-based; conditions: Table 2.1
Protocol: as §3, §2

[13] = tested on: MDA-MB-468 breast cancer cell line; experiment: Proliferation assay (MTT); assay type: cell-based
[14] = tested on: HPAC (CRL-2119) pancreatic cancer cell line; experiment: Proliferation assay (MTT); assay type: cell-based, human
[15] = tested on: MM200 melanoma cell line; experiment: Proliferation assay (MTT); assay type: cell-based
[16] = tested on: A2058 melanoma cell line; experiment: Proliferation assay (MTT); assay type: cell-based; conditions: Table 2.1; Melanoma A2058
[17] = tested on: MM200 melanoma cell line; experiment: HMC combination with cisplatin (synergy); assay type: cell-based; conditions: Table 8, single agent
Protocol: as §2
3-D model analysis of the cytotoxic interaction between drug A and drug B enables the representation of predicted inhibitory effect of two drugs in combination in 3 dimensions to reveal actual regions of synergy or antagonism. The 3D synergy plots are based on a theory of “Theretical Additivity” (TA) as outlined by Kanzawa et al (Int. J. Cancer 71, 311-319 (1997)). Theoretical Additivity was calculated from the cytotoxicities of drug A and drug B as monotherapies using the following formula which assumes the drugs are mutually exclusive inhibitors: […]
The TA is calculated for each combination of drug concentrations and subtracted from the observed experimental effect for each combination to give a measurement of synergisitic action.
HMC synergy with cisplatin was assessed either in combination over 5 days exposure or in sequence (HMC→cisplatin) against the MM200 melanoma cell line. It was difficult to assess for synergisitic toxicity using a change in IC50 as a measure of synergy due to HMC toxicity as monotherapy (Table 8). […] Evidence of synergy using the HMC-cisplatin combination was further assessed using the HMC→cisplatin sequence (24 hr exposure to each compound in sequence) against the melanoma cell line MM200. Using change in IC50 to assess for synergy it was noted that HMC at concentrations of 2 μM markedly chemosensitised the MM200 cells to cisplatin by >1000 fold (Table 8). HMC induced chemosensitisation of MM200 cells to cisplatin was confirmed using 3D analysis of the data (FIG. 11B).

[18] = tested on: rabbit kidney cells (RK); experiment: Proliferation assay (MTT), normal cell toxicity; assay type: cell-based; conditions: read-out: IC50
Protocol: as §1, §2

[19] = tested on: CCRF-CEM (Leukemic); experiment: Proliferation assay (MTT); assay type: cell-based; conditions: Homo sapiens; Table 2.1; Leukemic CCRF-CEM
Protocol: as §3, §2

[20] = tested on: MM96L melanoma cell line; experiment: Proliferation assay (MTT); assay type: cell-based; conditions: Homo sapiens, Table 15
Protocol: as §3, §2

[21] = tested on: NCI-H23 (Lung); experiment: Proliferation assay (MTT); assay type: cell-based; conditions: Homo sapiens, Table 2.1
Protocol: as §3, §2

[22] = tested on: RPMI-8226 (Leukemic); experiment: Proliferation assay (MTT); assay type: cell-based; conditions: Homo sapiens; Table 2.1; Leukemic RPMI-8226
Protocol: as §3, §2

[23] = tested on: SKMe128 melanoma cell line; experiment: Proliferation assay (MTT); assay type: cell-based; conditions: Table 15
Protocol: as §3, §2

[24] = DHE and HMC pharmacokinetics, oral, mice; assay type: in vivo, female BALB/c mice; conditions: for Free plasma concentration: 50 mg/kg p.o.
Protocol: HMC and DHE were prepared as homogenous suspensions in 1% CMC (m:v, water). Both formulations were delivered orally by gavage to female BALB/c mice at a dosage of 50 mg/kg. Three animals were allocated to each timepoint (15 min, 30 min, 1 hr, 4 hr and 24 hr). At each respective timepoint, animals were euthanased by cervical dislocation and blood collected. Free HMC was analysed by mass spectroscopy.

[25] = tested on: MEL-RM melanoma cells (TRAIL sensitive); experiment: Apoptosis incidence in melanoma cells; assay type: cell-based
[26] = tested on: ME4405 melanoma cells (TRAIL sensitive); experiment: Apoptosis incidence in melanoma cells; assay type: cell-based
[27] = tested on: IGR3 melanoma cells (Trail-resistant); experiment: Apoptosis incidence in melanoma cells; assay type: cell-based
[28] = tested on: Mel-AT melanoma cells (Trail +ve/Caspase 8 −ve); experiment: Apoptosis incidence in melanoma cells; assay type: cell-based
[29] = tested on: TRAIL-sensitive and -resistant melanoma cells; experiment: Apoptosis incidence, statements over several melanoma cell lines; assay type: cell-based; conditions: 4 μM, 24 hr exposure, DHE-treated cells
[30] = tested on: normal fibroblasts (MRC-5); experiment: Apoptosis in normal fibroblasts; assay type: cell-based; conditions: same concentration (8 μM) and exposure times (24 and 48 hr) as melanoma cells
Protocol: Studies were conducted on normal fibroblasts (MRC-5) and TRAIL-sensitive melanoma cells (ME4405 and MEL-RM) using 8 μM of either DHE, or HMC over 24 and 48 hr of exposure (FIG. 9).

[31] = Table 1, Neonatal Foreskin Fibroblasts (Human, NFF)

N.N.[Cl][Pt][Cl] [Cisplatin, cisplatin, reference compound]
IC50 [1, 31]: 9.85 ± 5 µM
IC50 ([2]; Table 2.1, Ovarian CP70, read-out: IC50): 10.3 µM
IC50 ([3]; Table 2.1, Ovarian SKOV-3, read-out: IC50): 5.4 µM
IC50 [4]: 2.1 µM
IC50 ([5]; Table 2.1): 2.07 µM
IC50 [6]: 130 ± 39 µM
IC50 [7]: 22.7 ± 35 µM
IC50 [8]: 42.3 µM
IC50 [9]: > 10 µM
IC50 [10]: 3.69 µM
IC50 [11]: 22.3 µM
IC50 [12]: 2.11 µM
IC50 ([13]; Table 2.1, Breast MDA-MB-468, read-out: IC50): 0.58 µM
IC50 ([14]; Table 2.1, Pancreatic CRL-2119, read-out: IC50): 9.36 µM
IC50 ([15]; Table 2.1, Melanoma MM200, read-out: IC50): 8.3 ± 0.7 µM
IC50 [16]: 5.73 ± 2.3 µM
IC50 ([17]; 24 hr exposure, read-out: IC50, 24 hr (monotherapy)): 6.32 µM
IC50 ([17]; 5 days exposure, read-out: IC50, Combined (monotherapy)): 8.82 µM

Oc1ccc(C2=Cc3ccc(O)cc3OC2)cc1 [DHE, dehydroequol, reference compound]
IC50 ([1]; Homo sapiens, Fibroblast, NFF): > 150 µM
IC50 [1, 31]: > 150 µM
IC50 ([18]; Oryctolagus cuniculus, rabbit kidney cells): > 150 µM
IC50 ([18]; Table 1, Rabbit Kidney): > 150 µM
IC50 [2]: 1.69 ± 0.62 µM
IC50 ([3]; Homo sapiens, SK-OV-3): 21.8 ± 4.65 µM
IC50 ([4]; Homo sapiens): 1.7 ± 0.61 µM
IC50 [19]: 1.7 ± 0.68 µM
IC50 ([5]; Homo sapiens, DU-145, Table 2.1): 5.95 ± 1.5 µM
IC50 ([6]; Homo sapiens): 24.4 ± 12.6 µM
IC50 ([7]; Homo sapiens): 50.5 ± 21.9 µM
IC50 [8]: 7.35 ± 0.89 µM
IC50 ([9]; Homo sapiens): 4.8 ± 3.8 µM
IC50 ([10]; Homo sapiens, MCF7): 21.5 ± 13.2 µM
IC50 [20]: 4.76 µM
IC50 [21]: 8.75 ± 7.2 µM
IC50 ([11]; Homo sapiens): 10.6 ± 3.8 µM
IC50 [12]: 9.09 ± 8.12 µM
IC50 [22]: 3.72 ± 0.08 µM
IC50 [23]: 4.4 µM
IC50 ([13]; Homo sapiens, MDA-MB-468): 7.9 ± 3.5 µM
IC50 ([14]; Homo sapiens, HPAC): 56.6 ± 16.8 µM
IC50 ([15]; Table 2.1, Melanoma MM200): 2.9 µM
IC50 ([15]; Table 15, melanoma MM200, monotherapy): 4.77 ± 4 µM
Free plasma concentration ([24]; Time 0.25): 3300 ± 130 nM
Free plasma concentration ([24]; Time 0.5): 2900 ± 50 nM
Free plasma concentration ([24]; Time 1): 1500 ± 110 nM
Free plasma concentration ([24]; Time 4): 1300 ± 70 nM
Free plasma concentration ([24]; Time 24): 150 ± 40 nM
maximum plasma concentration of the free form ([24]; oral 50 mg/kg): 3.3 µM
ratio of free:total ([24]; oral 50 mg/kg): 0.64
time of maximum free concentration ([24]; oral 50 mg/kg): 15 min
Percent Apoptosis ([25]; 24 hr exposure, 1 uM): 0%
Percent Apoptosis ([25]; 24 hr exposure, 2 uM): 0%
Percent Apoptosis ([25]; 24 hr exposure, 4 uM): 0%
Percent Apoptosis ([25]; 24 hr exposure, 8 uM): 2%
Percent Apoptosis ([25]; 24 hr exposure, 20 uM): 5%
Percent Apoptosis ([25]; 48 hr exposure, 1 uM): 1%
Percent Apoptosis ([25]; 48 hr exposure, 2 uM): 1.5%
Percent Apoptosis ([25]; 48 hr exposure, 4 uM): 3%
Percent Apoptosis ([25]; 48 hr exposure, 8 uM): 10%
Percent Apoptosis ([25]; 48 hr exposure, 20 uM): 12%
Percent Apoptosis ([26]; 24 hr exposure, 1 uM): 0%
Percent Apoptosis ([26]; 24 hr exposure, 2 uM): 2%
Percent Apoptosis ([26]; 24 hr exposure, 4 uM): 2%
Percent Apoptosis ([26]; 24 hr exposure, 8 uM): 6%
Percent Apoptosis ([26]; 24 hr exposure, 20 uM): 11%
Percent Apoptosis ([26]; 48 hr exposure, 1 uM): 1%
Percent Apoptosis ([26]; 48 hr exposure, 2 uM): 3%
Percent Apoptosis ([26]; 48 hr exposure, 4 uM): 14%
Percent Apoptosis ([26]; 48 hr exposure, 8 uM): 40%
Percent Apoptosis ([26]; 48 hr exposure, 20 uM): 35%
Percent Apoptosis ([27]; 24 hr exposure, 1 uM): 0%
Percent Apoptosis ([27]; 24 hr exposure, 2 uM): 0%
Percent Apoptosis ([27]; 24 hr exposure, 4 uM): 1%
Percent Apoptosis ([27]; 24 hr exposure, 8 uM): 3%
Percent Apoptosis ([27]; 24 hr exposure, 20 uM): 4%
Percent Apoptosis ([27]; 48 hr exposure, 1 uM): 1%
Percent Apoptosis ([27]; 48 hr exposure, 2 uM): 1%
Percent Apoptosis ([27]; 48 hr exposure, 4 uM): 2%
Percent Apoptosis ([27]; 48 hr exposure, 8 uM): 8%
Percent Apoptosis ([27]; 48 hr exposure, 20 uM): 8%
Percent Apoptosis ([28]; 24 hr exposure, 1 uM): 0%
Percent Apoptosis ([28]; 24 hr exposure, 2 uM): 3%
Percent Apoptosis ([28]; 24 hr exposure, 4 uM): 4%
Percent Apoptosis ([28]; 24 hr exposure, 8 uM): 8%
Percent Apoptosis ([28]; 24 hr exposure, 20 uM): 10%
Percent Apoptosis ([28]; 48 hr exposure, 1 uM): 1.5%
Percent Apoptosis ([28]; 48 hr exposure, 2 uM): 5%
Percent Apoptosis ([28]; 48 hr exposure, 4 uM): 15%
Percent Apoptosis ([28]; 48 hr exposure, 8 uM): 43%
Percent Apoptosis ([28]; 48 hr exposure, 20 uM): 40%
incidence of apoptosis [29]: 0-1%
induction of apoptosis in normal fibroblasts [30]: do not induce apoptosis
